Structures are written as SMILES.

One may read the pest or weed control as how far the test organism was held down. Higher therefore signals strong suppression. By melting point is commonly meant the temperature, or range, at which the solid turns liquid.

In one data set the test system is Puccinia recondita f. sp. tritici. Description: Test B: preventive spray on wheat seedlings, wheat leaf rust disease rating. The class given is in vivo. The conditions noted are these: 192 h, 100 = 100% disease control, 0 = no control. An excerpt:
(§1) General protocol for preparing test suspensions for Tests A-F: the test compounds were first dissolved in acetone in an amount equal to 3% of the final volume and then suspended at the desired concentration (in ppm) in acetone and purified water (50/50 mix by volume) containing 250 ppm of the surfactant PEG400 (polyhydric alcohol esters). The resulting test suspensions were then used in Tests A-F.
The test solution was sprayed to the point of run-off on wheat seedlings. The following day the seedlings were inoculated with a spore suspension of Puccinia recondita f. sp. tritici (the causal agent of wheat leaf rust) and incubated in a saturated atmosphere at 20° C. for 24 h, and then moved to a growth chamber at 20° C. for 7 days, after which time disease ratings were made.
(§2) A rating of 100 indicates 100% disease control and a rating of 0 indicates no disease control (relative to the controls). A dash (-) indicates the compound was not tested.
For the compound `COC(=O)NCc1cc(-c2ncn(-c3c(F)cc(Cl)cc3F)n2)ccc1C` [Compound 105], the pest or weed control at 10 ppm is 100%.

A further data set has as its system Phakopsora pachyrhizi. Briefly: Test D: preventive spray on soybean seedlings, Asian soybean rust disease rating. The class given is in vivo. The settings on record: 216 h, 100 = 100% disease control, 0 = no control.
Excerpt: as §1
The test solution was sprayed to the point of run-off on soybean seedlings. The following day the seedlings were inoculated with a spore suspension of Phakopsora pachyrhizi (the causal agent of Asian soybean rust) and incubated in a saturated atmosphere at 22° C. for 24 h and then moved to a growth chamber at 22° C. for 8 days, after which time visual disease ratings were made.
as §2
In turn, `COC(=O)NCc1cc(-c2ncn(-c3c(F)cc(Cl)cc3F)n2)ccc1C` [Compound 105] showed a pest or weed control at 10 ppm of 92%.

Test system in the next data set: not given
Assay: not given
Conditions: not given
Consider `COC(=O)NCc1cc(-c2ccn(-c3c(F)cc([N+](=O)[O-])cc3F)n2)ccc1C` [Compound 1, methyl N-[[5-[1-(2,6-difluoro-4-nitrophenyl)-1H-pyrazol-3-yl]-2-methyl-phenyl]methyl]carbamate], for which the melting point lay in the range of 131 to 134 °C.

Consider `COC(=O)NCc1cc(-c2ccn(-c3c(F)cc(N)cc3F)n2)ccc1C` [Compound 5, methyl N-[[5-[1-(4-amino-2,6-difluorophenyl)-1H-pyrazol-3-yl]-2-methyl-phenyl]methyl]carbamate], for which the melting point lay in the range of 168 to 171 °C.

Consider `COC(=O)NCc1cc(-c2ccn(-c3c(F)cc(Br)cc3F)n2)ccc1C` [Compound 7, methyl N-[[5-[1-(4-bromo-2,6-difluorophenyl)-1H-pyrazol-3-yl]-2-methyl-phenyl]methyl]carbamate], for which the melting point lay in the range of 138 to 139 °C.

With `COC(=O)NCc1cc(-c2ccn(-c3c(F)cc(O)cc3F)n2)ccc1C` [Compound 10, methyl N-[[5-[1-(2,6-difluoro-4-hydroxyphenyl)-1H-pyrazol-3-yl]-2-methylphenyl]methyl]carbamate], the melting point was in the range of 178 to 180 °C.

`COC(=O)NCc1cc(-c2ccn(-c3c(F)cc(OC(C)C)cc3F)n2)ccc1C` [Compound 14, methyl N-[[5-[1-[2,6-difluoro-4-(1-methylethoxy)phenyl]-1H-pyrazol-3-yl]-2-methylphenyl]methyl]carbamate] displayed a melting point of 133 to 134 °C.

Compound `COC(=O)NCc1cc(-c2ccn(-c3c(F)cc(C=O)cc3F)n2)ccc1C` [Compound 67, methyl N-[[5-[1-(2,6-difluoro-4-formylphenyl)-1H-pyrazol-3-yl]-2-methyl-phenyl]methyl]carbamate] yielded a melting point of 156 to 160 °C.

As to `COC(=O)NCc1cc(-c2ccn(-c3c(F)cc(C(=O)OC)cc3F)n2)ccc1C` [Compound 70, methyl 3,5-difluoro-4-[3-[3-[[(methoxycarbonyl)amino]methyl]-4-methyl-phenyl]-1H-pyrazol-1-yl]benzoate], the melting point lay in the range of 120 to 122 °C.

In turn, `COC(=O)NCc1cc(-c2ccn(-c3c(F)cc(CO)cc3F)n2)ccc1C` [Compound 71, methyl N-[[5-[1-[2,6-difluoro-4-(hydroxymethyl)phenyl]-1H-pyrazol-3-yl]-2-methylphenyl]methyl]carbamate] displayed a melting point of 183 to 184 °C.

As to `COC(=O)NCc1cc(-c2ncn(-c3c(F)cc(Cl)cc3F)n2)ccc1C` [Compound 105], the melting point was in the range of 166 to 170 °C.

Compound `COC(=O)NCc1cc(-c2cnn(-c3c(F)cc(N)cc3F)n2)ccc1C` [Compound 115, methyl N-[[5-[2-(4-amino-2,6-difluorophenyl)-2H-1,2,3-triazol-4-yl]-2-methylphenyl]methyl]carbamate] gave a melting point of 144 to 148 °C.

In the case of `COC(=O)NCc1cc(-c2cnn(-c3c(F)cc(Cl)cc3F)n2)ccc1C` [Compound 117, methyl N-[[5-[2-(4-chloro-2,6-difluorophenyl)-2H-1,2,3-triazol-4-yl]-2-methylphenyl]methyl]carbamate], the melting point was in the range of 108 to 112 °C.

`COC(=O)NCc1cc(-c2cnn(-c3c(F)cc([N+](=O)[O-])cc3F)n2)ccc1C` [Compound 118, methyl N-[[5-[2-(2,6-difluoro-4-nitrophenyl)-2H-1,2,3-triazol-4-yl]-2-methyl-phenyl]methyl]carbamate]: the melting point was in the range of 152 to 156 °C.

Consider `COC(=O)NCc1cc(-c2cn(-c3c(F)cc([N+](=O)[O-])cc3F)nn2)ccc1C` [Compound 132, methyl N-[[5-[1-(2,6-difluoro-4-nitrophenyl)-1H-1,2,3-triazol-4-yl]-2-methylphenyl]methyl]carbamate], for which the melting point lay within 174 to 178 °C.

The record behind these values is patent US20240324596A1, “SUBSTITUTED TOLYL FUNGICIDES” (FMC CORPORATION, priority 2023, published 2024).
